Measured values: patent US5063245A, “Corticotropin-releasing factor antagonism compounds” (Nova Pharmaceutical Corporation, priority 1990, dated 1991)
Counter-ions that a name gives are not always drawn. Like-named read-outs stand apart in the source and are kept apart here.

Columns and labels:
CRF receptor = target: T1, CRF receptor (Rattus norvegicus, UniProt P35353); assay: In vitro receptor binding: inhibition of specific binding of [125I]tyrosine-oCRF to rat cerebral cortex membranes; details: [125I]Tyr-oCRF 50-100 pM, 2 hours at room temperature
T1 construct: the cerebral cortex was removed and the tissue homogenized; from tissue; host or cells: cerebral cortex membranes of male Sprague-Dawley rats
T1 sequence (P35353 24-415): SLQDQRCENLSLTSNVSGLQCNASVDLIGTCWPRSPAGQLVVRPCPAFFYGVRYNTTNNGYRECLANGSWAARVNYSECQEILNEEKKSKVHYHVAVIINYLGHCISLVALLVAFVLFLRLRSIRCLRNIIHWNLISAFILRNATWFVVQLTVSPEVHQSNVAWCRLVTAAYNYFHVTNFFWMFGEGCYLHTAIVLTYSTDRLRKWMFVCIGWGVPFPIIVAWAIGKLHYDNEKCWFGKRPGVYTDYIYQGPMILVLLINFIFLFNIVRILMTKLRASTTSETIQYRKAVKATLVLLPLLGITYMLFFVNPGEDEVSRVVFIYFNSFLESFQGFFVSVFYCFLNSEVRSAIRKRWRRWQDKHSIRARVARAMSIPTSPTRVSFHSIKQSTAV
Procedure: The potency of the compounds of the invention as inhibitors of the specific binding of radiolabeled CRF to rat cerebral cortex membranes was examined using a standard in vitro radioligand binding technique. […] The homogenate was centrifuged at 48,000×g for 10 minutes at 4° C. The supernatant was removed, the tissue pellet suspended in the original volume of fresh homogenization buffer using a Polytron and centrifuged as before. […] Incubation buffer consists of 50 mM Hepes (pH 7.0 at 22° C.) containing 10 mM MgCl2, 2 mM EGTA, 0.1 mM bacitracin, 100 KIU (kallikrein inhibitor units)/mL aprotinin and 0.1% BSA (bovine serum albumin). […] Nonspecific binding was determined in the presence of 1 μM oCRF. The binding reaction was allowed to proceed for 2 hours at room temperature. Bound radioligand was separated from the incubation medium by centrifugation in a Beckman microfuge for 5 minutes at 12,000×g. The supernatant was aspirated and the resulting pellet was washed with 1 mL of cold phosphate buffered saline (pH 7.2) containing 0.01% of Triton X-100.
Tyr-oCRF to rat cortical membranes was determined on at least three separate occasions using 8-10 concentrations of each compound and utilizing triplicate incubations. The IC50 and apparent Hill coefficient for each compound were calculated using a computer-assisted log-logit analysis.

[1] = target: CRF-stimulated adenylate cyclase; assay: Inhibition of CRF-stimulated adenylate cyclase activity (rat frontal cortex); type: biochemical; details: 1 μM oCRF, 37° C., 10 minutes
Source text: CRF antagonist activity is established by the ability of the compounds to antagonize CRF-stimulated adenylate cyclase activity, it having been established that CRF receptors are coupled to a guanine nucleotide regulatory protein that activates adenylate cyclase [G. Aguilera et al., Neuroendocrinology, 43, 79 (1986); G. Battaglia et al., Synapse, 1, 572 (1987)].
Male Sprague-Dawley rats (175-250 g) were sacrificed by decapitation, the frontal cortex was dissected and homogenized in 30 volumes (w/v) of ice-cold buffer (50 mM Tris HCl, 10 mM MgCl2, 2 mM EGTA; pH 7.2 at 22° C.). The homogenate was centrifuged at 40,000×g for 3 minutes (4° C.), the supernatant discarded and the pellet resuspended in original volume of fresh homogenization buffer. Following centrifugation at 40,000×g for 30 minutes, the resulting pellet was suspended to a tissue concentration of 20 mg original wet weight of tissue per mL (approximately 40-60 μg protein/mL). For determination of basal adenylate cyclase activity, assays are carried out at 37° C. for 10 minutes in 250 μL of buffer containing 100 mM Tris HCl, 10 mM MgCl2, 0.4 mM EGTA, 0.1% BSA, 1 mM isobutylmethylxanthine (IBMX), 3 units/tube phosphocreatine kinase, 5 mM creatine phosphate, 100 μM guanosine. Maximal stimulation of adenylate cyclase activity was accomplished by the addition of 10^-6 M oCRF. Stimulated enzyme activity generally represented a 75-95% increase over basal levels. Reactions were initiated by the addition of tissue and terminated by the addition of 150 μL of 50 mM Tris HCl, 45 mM ATP, 2% sodium dodecyl sulfate (SDS), and [^3 H] cAMP (approximately 40,000 dpm). The [^3 H]cAMP was added to each assay tube to monitor recovery of cAMP during subsequent chromatography steps. Separation of [^32 P]cAMP from [^32 P]ATP was accomplished by sequential elution over Dowex and alumina columns. The eluate (4 mL) was collected in 20 mL scintillation vials to which 8 mL of Beckman EP fluor was added. Vials were shaken for 30 minutes prior to measuring ^3 H and ^32 P by scintillation counting. All data were fed directly from the liquid scintillation counter via RS232 port to a VAX 8300 computer. Individual data points were expressed as pmoles of cAMP formed/10 minutes/mg protein. Protein content of tissue samples was measured using the BioRad method with bovine serum albumin serving as the standard.
Determination of antagonist activity was accomplished by addition of at least six concentrations of the compound (10^-8 -10^-4 M), evaluated in triplicate, in the presence of a maximally stimulating concentration of oCRF (1 μM). IC50 values were derived from a log-logit transformation of the data on a Vax 8300.

[2] = Table I, Formula I, read-out: Inhibition of CRF Binding, Rat Cerebral Cortex Membrane, IC50
[3] = Inhibition of CRF Binding, Rat Cerebral Cortex Membrane, IC50, Table I, Formula I
[4] = Table II, Formula II (disulfides), read-out: Inhibition of CRF Binding, Rat Cerebral Cortex Membrane, IC50
[5] = Table II, Formula II (disulfides)

SMILES	IC50 (CRF receptor; [2]) [µM]	IC50 ([1]; Table I, Formula I) [µM]	IC50 (CRF receptor; [4]) [µM]	other results
Cn1c(N)c(SC#N)c(=O)n1-c1ccccc1 [Formula I: Ph, CH3, NH2, SCN, 3-amino-2-methyl-5-oxo-1-phenyl-3-pyrazolin-4-yl thiocyanate]	14.4	49.6	–	–
Cc1c(SC#N)c(=O)n(-c2c(Cl)cccc2Cl)n1C [Formula I: 2,6-Cl2 Ph, CH3, CH3, SCN, 2,3-dimethyl-5-oxo-1-(2,6-dichlorophenyl)-3-pyrazolin-4-yl thiocyanate]	–	29.9	–	IC50 (CRF receptor; [3]): 18.9 µM
CCn1c(C)c(SC#N)c(=O)n1-c1ccc(S(C)(=O)=O)cc1 [Formula I: 4-CH3 SO2 Ph, C2 H5, CH3, SCN, 2-ethyl-3-methyl-5-oxo-1-(4-methylsulfonylphenyl)-3-pyrazolin-4-yl thiocyanate]	17	11.4	–	–
CCn1c(C)c(SC#N)c(=O)n1-c1cccc(Cl)c1 [Formula I: 3-ClPh, C2 H5, CH3, SCN, 2-ethyl-3-methyl-5-oxo-1-(3-chlorophenyl)-3-pyrazolin-4-yl thiocyanate]	7.4	6.9	–	–
CCn1c(C)c(SSc2c(C)n(CC)n(-c3ccc(Cl)c(Cl)c3)c2=O)c(=O)n1-c1ccc(Cl)c(Cl)c1 [Formula II: 3,4-Cl2 Ph, C2 H5, CH3, 2-ethyl-3-methyl-5-oxo-1-(3,4-dichlorophenyl)-3-pyrazolin-4-yl disulfide]	–	–	2.9	IC50 [1, 5]: 4.3 µM
CCCn1c(C)c(SC#N)c(=O)n1-c1ccccc1 [Formula I: Ph, (CH2)2 CH3, CH3, SCN, 3-methyl-5-oxo-1-phenyl-2-propyl-3-pyrazolin-4-yl thiocyanate]	–	16.9	–	IC50 (CRF receptor; [3]): 32 µM
CCc1c(SC#N)c(=O)n(CC)n1CC [Formula I: C2 H5, C2 H5, C2 H5, SCN, 1,2,3-triethyl-5-oxo-3-pyrazolin-4-yl thiocyanate]	67	45	–	–
CCn1c(C)c(SC#N)c(=O)n1-c1ccc([N+](=O)[O-])cc1 [Formula I: 4-NO2 Ph, C2 H5, CH3, SCN, 2-ethyl-3-methyl-5-oxo-1-(4-nitrophenyl)-3-pyrazolin-4-yl thiocyanate]	5.7	2	–	–
CCc1c(SC#N)c(=O)n(-c2ccc(OC)cc2)n1C [Formula I: 4-OMePh, CH3, C2 H5, SCN]	9.3	11.9	–	–
Cc1c(SC#N)c(=O)n(C2CCCCC2)n1C [Formula I: C6 H11, CH3, CH3, SCN, 1-cyclohexyl-2,3-dimethyl-5-oxo-3-pyrazolin-4-yl thiocyanate]	15	35.2	–	–
CCn1c(C)c(SC#N)c(=O)n1-c1ccccc1 [Formula I: Ph, C2 H5, CH3, SCN, 2-ethyl-3-methyl-5-oxo-1-phenyl-3-pyrazolin-4-yl thiocyanate]	12.2	6.5	–	–
Cc1c(SC#N)c(=O)[nH]n1-c1ccc([N+](=O)[O-])cc1 [Formula I: H, 4-NO2 Ph, CH3, SCN]	32	69.3	–	–
Cc1c(SC#N)c(=O)n(-c2ccc3ccccc3c2)n1C [Formula I: 2-Naphthyl, CH3, CH3, SCN, 2,3-dimethyl-1-naphthyl-5-oxo-3-pyrazolin-4-yl thiocyanate]	3.8	–	–	–
Cc1c(SC#N)c(=O)n(-c2ccc(I)cc2)n1C [Formula I: 4-IPh, CH3, CH3, SCN, 2,3-dimethyl-5-oxo-1-(4-iodophenyl)-3-pyrazolin-4-yl thiocyanate]	6.5	–	–	–

Further lines, with some results ahead:

IC50 (CRF receptor; [2]) [µM]	IC50 ([1]; Table I, Formula I) [µM]	IC50 (CRF receptor; [4]) [µM]	SMILES	other results
39.8	–	–	Cn1c(CN2CCOCC2)c(SC#N)c(=O)n1-c1ccccc1 [Formula I: Ph, CH3, MorCH2, SCN, 2-methyl-3-mopholinomethyl-5-oxo-1-phenyl-3-pyrazolin-4-yl thiocyanate]	–
13.7	2.9	–	CC(=O)Sc1c(C)n(C)n(-c2ccccc2)c1=O [Formula I: Ph, CH3, CH3, SAc, 2,3-dimethyl-5-oxo-1-phenyl-3-pyrazolin-4-yl thioacetate]	–
16.1	6.1	–	Cc1c(SC#N)c(=O)n(-c2ccccc2)n1-c1ccccc1 [Formula I: Ph, Ph, CH3, SCN, 3-methyl-5-oxo-1,2-phenyl-3-pyrazolin-4-yl thiocyanate]	–
–	–	8.2	Cn1c(CN2CCOCC2)c(SSc2c(CN3CCOCC3)n(C)n(-c3ccccc3)c2=O)c(=O)n1-c1ccccc1 [Formula II: Ph, CH3, MorCH2, 2HCl, 2-methyl-3-morpholinylmethyl-5-oxo-1-phenyl-3-pyrazolin-4-yl disulfide]	–
–	–	6.4	Cc1c(SSc2c(C)n(C)n(-c3ccccc3)c2=O)c(=O)n(-c2ccccc2)n1C [Formula II: Ph, CH3, CH3, HCl, 2,3-Dimethyl-5-Oxo-1-Phenyl-3-Pyrazolin-4-yl Disulfide]	IC50 [1, 5]: 2.5 µM
6.5	3	–	CC(=O)Nc1cccc(-c2c(SC#N)c(=O)n(-c3ccccc3)n2C)c1 [Formula I: Ph, CH3,3-AcNHPh, SCN, 2-methyl-5-oxo-1-phenyl-3-(3-acetamidophenyl)-3-pyrazolin-4-yl thiocyanate]	–
–	–	4.3	Cc1c(SSc2c(C)n(C)n(-c3cccc(Cl)n3)c2=O)c(=O)n(-c2cccc(Cl)n2)n1C [Formula II: 6-Cl-2-Pyr, CH3, CH3, 2,3-dimethyl-5-oxo-1-(6-chloro-2-pyridyl)-3-pyrazolin-4-yl disulfide]	–
–	–	5.1	Cc1c(SSc2c(C)n(C)n(-c3ccc(I)cc3)c2=O)c(=O)n(-c2ccc(I)cc2)n1C [Formula II: 4-IPh, CH3, CH3, 2,3-dimethyl-5-oxo-1-(4-iodophenyl)-3-pyrazolin-4-yl disulfide]	–
–	–	4.8	CCn1c(C)c(SSc2c(C)n(CC)n(-c3ccccc3)c2=O)c(=O)n1-c1ccccc1 [Formula II: Ph, C2 H5, CH3, 2-ethyl-3-methyl-5-oxo-1-phenyl-3-pyrazolin-4-yl disulfide]	IC50 [1, 5]: 1 µM
–	–	2.2	Cc1c(SSc2c(C)n(C)n(-c3ccccc3)c2=O)c(=O)n(-c2ccccc2)n1C [Formula II: Ph, CH3, CH3, 2,3-Dimethyl-5-Oxo-1-Phenyl-3-Pyrazolin-4-yl Disulfide]	IC50 [1, 5]: 1.1 µM
–	–	3.3	Cc1c(SSc2c(C)n(C)n(-c3ccc4ccccc4c3)c2=O)c(=O)n(-c2ccc3ccccc3c2)n1C [Formula II: 2-Naphthyl, CH3, CH3, HCl, 2,3-dimethyl-1-naphthyl-5-oxo-3-pyrazolin-4-yl disulfide]	–
